Columns and labels:
HSV-2 [1] = assay: Viral titer from Vero cells pre-treated with oligonucleotide, HSV-2; assay type: cell-based, African Green monkey (Vero cells); details: cells infected with HSV-2
Procedure: (§1) Vero cells, a cell line derived from African Green monkey kidney, were pre-treated with varying concentrations of ISS or non-ISS oligonucleotides for varying times prior to the addition of HSV-1 or HSV-2. Oligonucleotides were used at 1 μg/ml or 10 μg/ml and the cells were incubated with the oligonucleotides for 30 seconds, 10 minutes or 24 hours. Viral titers were calculated as a percent of control titer generated by cells not treated with the oligonucleotides. The data are expressed as percent of control titer.

HSV-1 [2] = assay: Viral titer from Vero cells pre-treated with oligonucleotide, HSV-1; assay type: cell-based, African Green monkey (Vero cells); details: cells infected with HSV-1
Procedure: as §1

HSV-2 [3] = assay: Viral titer after pre-treating HSV-2 virus with oligonucleotide, Vero cells; assay type: cell-based, African Green monkey (Vero cells)
Procedure: (§2) HSV-1 or HSV-2 virus was pre-treated with varying concentrations of ISS or non-ISS oligonucleotides for 10 minutes prior to adding the mixture to plated Vero cells. Oligonucleotides were used at 1 μg/ml or 10 μg/ml. Viral titers were calculated as a percent of control titer generated by cells not treated with the oligonucleotides. The data are expressed as percent of control titer.

HSV-1 [4] = assay: Viral titer after pre-treating HSV-1 virus with oligonucleotide, Vero cells; assay type: cell-based, African Green monkey (Vero cells)
Procedure: as §2

HSV-2 strain MS = assay: Recurrent genital HSV-2 disease in guinea pigs; assay type: in vivo, Swiss Hartley guinea pigs; details: 3 times/day for 7 days starting 6 hours post inoculation (21 treatments)
HBV = assay: Chronic HBV model: serum HBV DNA and HBsAg in STC transgenic mice; assay type: in vivo, STC strain transgenic mice; details: STC mice; ISS 100 μg SC; murine IL-12 100 ng IP days 12, 13, 14
Procedure: ISS activity was tested in an animal model of chronic hepatitis. An ISS-containing phosphorothioate oligonucleotide (5′-[…]-3′) (SEQ ID NO:1), was delivered to STC strain transgenic mice, followed by measurement of HBV DNA and HBsAg production.
STC line mice were developed at Stanford University by Patricia Marion. The majority of these mice secrete HBV of the Ayw genotype (Galibert et al. (1979) Nature 281:646) to titers of 10^6-8 viral genome equivalents per ml of serum. STC mice were derived from the FVB strain, and were constructed by microinjection of HBV genomic DNA.
Approximately one month old mice were bled and tested for serum levels of HBsAg, which is predictive of viral DNA titer. A pool of 40 STC mice with approximately equal levels of HBsAg were selected and randomly assigned to four treatment groups of 10 animals each. The groups were treated as follows: • 1. 100 μg of ISS injected subcutaneously, once per week for 3 weeks (days 0, 7, 14) • 2. 100 μg of ISS injected subcutaneously, one injection at day 14 • 3. 100 ng of murine 1L-12 injected intraperitoneally on days 12, 13, and 14. • 4. PBS injected subcutaneously (days 0, 7, 14)
Blood samples were taken at day 0, 7, 14, 15 (22 hr after last IL-12 injection), 18, 28 and 35. Serum prepared from the blood samples was tested for HBV DNA by quantitative PCR (testing performed under contract by Hepadnavirus Testing, Inc.), and HBsAg using a commercially available EIA kit for HBsAg from Abbott Laboratories. Animals were sacrificed at day 35 and livers were collected for histologic analysis.

[5] = cells pre-treated 1 μg/ml, 30 sec
[6] = cells pre-treated 10 μg/ml, 30 sec
[7] = cells pre-treated 1 μg/ml, 10 min
[8] = cells pre-treated 1 μg/ml, 24 hr
[9] = cells pre-treated 10 μg/ml, 10 min
[10] = cells pre-treated 10 μg/ml, 24 hr
[11] = HSV-2 virus pre-treated 10 minutes with 1 μg/ml
[12] = HSV-2 virus pre-treated 10 minutes with 10 μg/ml
[13] = HSV-1 virus pre-treated 10 minutes with 1 μg/ml
[14] = HSV-1 virus pre-treated 10 minutes with 10 μg/ml

Molecule | Viral titer, percent of control titer (HSV-2 [1]; [5]) | Viral titer, percent of control titer (HSV-2 [1]; [6]) | Viral titer, percent of control titer (HSV-1 [2]; [5]) | Viral titer, percent of control titer (HSV-1 [2]; [7]) | Viral titer, percent of control titer (HSV-1 [2]; [8]) | Viral titer, percent of control titer (HSV-1 [2]; [6]) | Viral titer, percent of control titer (HSV-1 [2]; [9]) | Viral titer, percent of control titer (HSV-1 [2]; [10]) | Viral titer, percent of control titer (HSV-2 [3]; [11]) | Viral titer, percent of control titer (HSV-2 [3]; [12]) | Viral titer, percent of control titer (HSV-1 [4]; [13]) | Viral titer, percent of control titer (HSV-1 [4]; [14]) | Viral titer, percent of control titer (HSV-2 [1]; [9]) | Viral titer, percent of control titer (HSV-2 [1]; [10]) | Viral titer, percent of control titer (HSV-2 [1]; [7]) | Viral titer, percent of control titer (HSV-2 [1]; [8]) | Cumulative recurrent mean lesion days (HSV-2 strain MS) | Effect on serum HBV DNA viral titer (HBV)
5′-TCGTCGAACGTTCGTTAACGTTCG-3′ (listed as DNA, chemistry not given here) [SEQ ID NO: 11, ISS oligonucleotide] | 119% of control titer | 136% of control titer | 129% of control titer | 95% of control titer | 87% of control titer | 122% of control titer | 96% of control titer | 78% of control titer | 101% of control titer | 97% of control titer | 100% of control titer | 100% of control titer |  |  |  |  |  | 
5′-TGACTGTGAACCTTAGAGATGA-3′ (chemistry not given here) [SEQ ID NO: 12, non-ISS control oligonucleotide, reference compound] | 111% of control titer | 129% of control titer | 132% of control titer | 98% of control titer | 97% of control titer | 141% of control titer | 100% of control titer | 94% of control titer | 100% of control titer | 97% of control titer | 98% of control titer | 101% of control titer | 100% of control titer | 98% of control titer |  |  |  | 
5′-TGACTGTGAAGGTTAGAGATGA-3′ (chemistry not given here) [SEQ ID NO: 9, reference compound] | 98% of control titer | 103% of control titer | 100% of control titer | 99% of control titer | 101% of control titer | 96% of control titer | 100% of control titer | 97% of control titer | 98% of control titer | 106% of control titer | 102% of control titer | 103% of control titer | 97% of control titer | 99% of control titer | 96% of control titer | 103% of control titer |  | 
Nc1nc2c(ncn2COCCO)c(=O)[nH]1 [Acyclovir, reference compound] |  |  |  |  |  |  |  |  |  |  |  |  |  |  |  |  | significant reduction in cumulative recurrent mean lesion days | 
murine IL-12: murine IL-12, 100 ng injected intraperitoneally as comparator in STC mice (protein, UniProt P43431 23-215; P43432 23-335, looked up) Interleukin-12 subunit alpha: RVIPVSGPARCLSQSRNLLKTTDDMVKTAREKLKHYSCTAEDIDHEDITRDQTSTLKTCLPLELHKNESCLATRETSSTTRGSCLPPQKTSLMMTLCLGSIYEDLKMYQTEFQAINAALQNHNHQQIILDKGMLVAIDELMQSLNHNGETLRQKPPVGEADPYRVKMKLCILLHAFSTRVVTINRVMGYLSSA Interleukin-12 subunit beta: MWELEKDVYVVEVDWTPDAPGETVNLTCDTPEEDDITWTSDQRHGVIGSGKTLTITVKEFLDAGQYTCHKGGETLSHSHLLLHKKENGIWSTEILKNFKNKTFLKCEAPNYSGRFTCSWLVQRNMDLKFNIKSSSSSPDSRAVTCGMASLSAEKVTLDQRDYEKYSVSCQEDVTCPTAEETLPIELALEARQQNKYENYSTSFFIRDIIKPDPPKNLQMKPLKNSQVEVSWEYPDSWSTPHSYFSLKFFVRIQRKKEKMKETEEGCNQKGAFLVEKTSTEVQCKGGNVCVQAQDRYYNSSCSKWACVPCRVRS |  |  |  |  |  |  |  |  |  |  |  |  |  |  |  |  |  | effective in reducing viral titer
